23 compounds from US8148391B2 (Cephalon, Inc., priority 2006, dated 2012) can be followed below.

The target of experiment [1] is T1, c-Met (cytoplasmic domain) (Homo sapiens, UniProt P08581).
T1 construct: 10 ng/mL c-Met (cytoplasmic domain, Invitrogen Corporation #PV3143); purchased Invitrogen Corporation PV3143
As to the kind of experiment: c-Met Kinase Assay (same methods as for ALK, with modifications). The format is biochemical. Conditions: 1 μM ATP (Km level). In short, it runs like this: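 Steps: coat wells with PLC-γ (10 μg/mL, Tris-buffered saline); add 10 ng/mL c-Met cytoplasmic domain to initiate; incubate 15 min, 37° C; detect phosphoproduct via Eu-N1 PT66 antibody.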

Experiment [2] has as its target T2, baculovirus-expressed ALK (Homo sapiens, UniProt Q9UM73).
T2 construct: host or cells: baculovirus expression system
Put plainly: ALK Kinase Assay (ELISA-type, time-resolved fluorescence). Conditions: 1 μM ATP (Km level). The format is biochemical. Summed up:
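Wells were coated with phospholipase C-γ at 10 μg/mL in Tris-buffered saline. Adding 30 ng/ml enzyme started the reaction, which ran at 37° C for 15 minutes before Eu-N1 PT66 antibody detection. Percent inhibition versus log10 concentration gave IC50 by variable-slope fit.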

Setting [3] is: c-Met kinase inhibition, read-out: cMet Activity.
Where [4] appears, read: ALK kinase inhibition, read-out: ALK Activity.
Setting [5] is: read-out: cMet Activity (c-Met Kinase Inhibition, IC50).
Setting [6] is: read-out: ALK Activity (ALK Kinase Inhibition, IC50).

Read-outs that look alike come from different tables or passages of the source. Some results are limits rather than exact numbers.

T1 sequence (P08581 956-1390 limits assumed): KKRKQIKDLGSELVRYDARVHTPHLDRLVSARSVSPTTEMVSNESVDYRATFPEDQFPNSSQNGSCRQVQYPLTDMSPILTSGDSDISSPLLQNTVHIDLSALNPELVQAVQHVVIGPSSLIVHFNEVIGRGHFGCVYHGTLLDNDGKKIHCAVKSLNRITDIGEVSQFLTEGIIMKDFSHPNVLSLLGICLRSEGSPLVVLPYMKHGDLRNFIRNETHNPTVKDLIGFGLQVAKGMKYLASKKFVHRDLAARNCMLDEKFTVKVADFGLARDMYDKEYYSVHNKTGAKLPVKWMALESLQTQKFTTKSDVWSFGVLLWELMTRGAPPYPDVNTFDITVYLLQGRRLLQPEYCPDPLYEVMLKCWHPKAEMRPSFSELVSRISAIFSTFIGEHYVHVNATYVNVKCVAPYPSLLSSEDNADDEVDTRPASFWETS
T2 sequence (Q9UM73 19-1620): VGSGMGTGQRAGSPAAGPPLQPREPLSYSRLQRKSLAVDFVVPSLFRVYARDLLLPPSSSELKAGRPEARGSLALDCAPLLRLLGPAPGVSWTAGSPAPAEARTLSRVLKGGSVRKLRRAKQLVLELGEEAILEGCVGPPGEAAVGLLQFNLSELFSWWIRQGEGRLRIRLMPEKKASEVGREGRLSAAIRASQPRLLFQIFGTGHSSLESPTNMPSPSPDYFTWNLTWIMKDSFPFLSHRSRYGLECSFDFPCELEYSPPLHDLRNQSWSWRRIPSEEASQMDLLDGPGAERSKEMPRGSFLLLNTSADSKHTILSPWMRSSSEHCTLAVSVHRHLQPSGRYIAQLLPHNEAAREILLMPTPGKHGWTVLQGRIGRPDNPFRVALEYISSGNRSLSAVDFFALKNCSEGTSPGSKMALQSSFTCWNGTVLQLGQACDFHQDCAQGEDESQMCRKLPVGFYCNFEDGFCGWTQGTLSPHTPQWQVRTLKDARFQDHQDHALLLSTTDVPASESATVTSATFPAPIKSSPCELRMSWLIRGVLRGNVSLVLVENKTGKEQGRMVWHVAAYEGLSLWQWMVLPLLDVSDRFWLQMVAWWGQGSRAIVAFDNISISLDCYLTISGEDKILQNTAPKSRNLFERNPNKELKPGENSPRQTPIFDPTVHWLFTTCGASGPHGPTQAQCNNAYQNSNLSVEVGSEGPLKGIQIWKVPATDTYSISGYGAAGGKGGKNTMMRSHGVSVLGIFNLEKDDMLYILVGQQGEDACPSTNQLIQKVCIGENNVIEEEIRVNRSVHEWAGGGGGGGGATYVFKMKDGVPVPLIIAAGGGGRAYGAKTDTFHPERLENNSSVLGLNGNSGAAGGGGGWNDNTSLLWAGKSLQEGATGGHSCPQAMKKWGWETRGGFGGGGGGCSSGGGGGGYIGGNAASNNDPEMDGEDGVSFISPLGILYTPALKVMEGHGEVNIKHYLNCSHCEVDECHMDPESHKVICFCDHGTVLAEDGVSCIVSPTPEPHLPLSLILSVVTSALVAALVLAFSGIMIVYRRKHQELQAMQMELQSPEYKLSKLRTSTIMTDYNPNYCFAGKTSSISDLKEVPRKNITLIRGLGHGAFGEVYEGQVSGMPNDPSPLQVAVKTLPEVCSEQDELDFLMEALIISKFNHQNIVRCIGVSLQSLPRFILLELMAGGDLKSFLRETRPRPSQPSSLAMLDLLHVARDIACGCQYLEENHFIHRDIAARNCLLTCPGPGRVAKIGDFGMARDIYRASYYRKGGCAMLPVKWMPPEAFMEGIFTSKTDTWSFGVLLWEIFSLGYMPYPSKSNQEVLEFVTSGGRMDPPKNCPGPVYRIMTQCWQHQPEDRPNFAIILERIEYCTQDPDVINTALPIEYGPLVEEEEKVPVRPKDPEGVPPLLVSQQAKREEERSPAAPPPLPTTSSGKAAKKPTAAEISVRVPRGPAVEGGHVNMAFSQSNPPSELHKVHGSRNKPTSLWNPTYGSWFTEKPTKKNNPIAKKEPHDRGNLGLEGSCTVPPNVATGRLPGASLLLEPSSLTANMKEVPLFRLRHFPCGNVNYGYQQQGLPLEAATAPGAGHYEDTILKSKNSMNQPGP

As for `CNC(=O)c1ccccc1Nc1nc(Nc2ccc3c(c2)N(C)CCN(C(=O)N(C)C)C3)ncc1Cl` [Example 489, 8-[5-Chloro-4-(2-methylcarbamoyl-phenylamino)-pyrimidin-2-ylamino]-1-methyl-1,2,3,5-tetrahydro-benzo[e][1,4]diazepine-4-carboxylic acid dimethylamide], the IC50 in experiment [1] (setting [3]) and in experiment [2] (setting [4]) was less than 100 nM throughout.
Turning to `COCCN1CCN(C)c2cc(Nc3ncc(Cl)c(N[C@@H]4CCCC[C@H]4NS(C)(=O)=O)n3)c(OC)cc2C1` [Example 490, N-((1R,2R)-2-{5-Chloro-2-[7-methoxy-4-(2-methoxy-ethyl)-1-methyl-2,3,4,5-tetrahydro-1H-benzo[e][1,4]diazepin-8-ylamino]-pyrimidin-4-ylamino}-cyclohexyl)-methanesulfonamide], the IC50 in experiment [1] (setting [3]) is greater than 10000 nM; in experiment [2] (setting [4]), less than 100 nM.
On to `COCCN1CCN(C)c2cc(Nc3ncc(Cl)c(NC4C5CCC(C5)C4C(N)=O)n3)c(OC)cc2C1` (stereo not drawn) [Example 491, (2-exo,3-exo)-3-{5-Chloro-2-[7-methoxy-4-(2-methoxy-ethyl)-1-methyl-2,3,4,5-tetrahydro-1H-benzo[e][1,4]diazepin-8-ylamino]-pyrimidin-4-ylamino}-bicyclo[2.2.1]heptane-2-carboxylic acid amide], for which the IC50 in experiment [1] (setting [3]) was greater than 10000 nM; in experiment [2] (setting [4]), less than 100 nM.
As for `COc1cc2c(cc1Nc1ncc(Cl)c(N[C@@H]3CCCC[C@H]3NS(C)(=O)=O)n1)N(C)CCN(C[C@@H](O)C(F)(F)F)C2` [Example 492, N-((1R,2R)-2-{5-Chloro-2-[7-methoxy-1-methyl-4-((R)-3,3,3-trifluoro-2-hydroxy-propyl)-2,3,4,5-tetrahydro-1H-benzo[e][1,4]diazepin-8-ylamino]-pyrimidin-4-ylamino}-cyclohexyl)-methanesulfonamide], the IC50 in experiment [1] (setting [3]) is greater than 10000 nM; in experiment [2] (setting [4]), less than 100 nM.
Taken in the same sequence, the figures for `COc1cc2c(cc1Nc1ncc(Cl)c(Nc3ccc(N4CCOCC4)cc3OC)n1)N(C)CCNC2` [Example 493, 5-Chloro-N*2*-(7-methoxy-1-methyl-2,3,4,5-tetrahydro-1H-benzo[e][1,4]diazepin-8-yl)-N*4*-(2-methoxy-4-morpholin-4-yl-phenyl)-pyrimidine-2,4-diamine] were greater than 10000 nM and less than 100 nM.
Taken in the same sequence, the figures for `COc1cc2c(cc1Nc1ncc(Cl)c(Nc3ccc(N4CCOCC4)cc3OC)n1)N(C)CCN(S(C)(=O)=O)C2` [Example 494, 5-Chloro-N*2*-(4-methanesulfonyl-7-methoxy-1-methyl-2,3,4,5-tetrahydro-1H-benzo[e][1,4]diazepin-8-yl)-N*4*-(2-methoxy-4-morpholin-4-yl-phenyl)-pyrimidine-2,4-diamine] were greater than 10000 nM and less than 100 nM.
On the same counts, the results for `COCCN1CCN(C)c2cc(Nc3ncc(Cl)c(Nc4ccc(N5CCOCC5)cc4OC)n3)c(OC)cc2C1` [Example 495, 5-Chloro-N*2*-[7-methoxy-4-(2-methoxy-ethyl)-1-methyl-2,3,4,5-tetrahydro-1H-benzo[e][1,4]diazepin-8-yl]-N*4*-(2-methoxy-4-morpholin-4-yl-phenyl)-pyrimidine-2,4-diamine] are greater than 10000 nM and less than 100 nM.
In the case of `COc1cc2c(cc1Nc1ncc(Cl)c(Nc3ccc(N4CCOCC4)cc3OC)n1)N(C)CCN(C[C@@H](O)C(F)(F)F)C2` [Example 496, (R)-3-{8-[5-Chloro-4-(2-methoxy-4-morpholin-4-yl-phenylamino)-pyrimidin-2-ylamino]-7-methoxy-1-methyl-1,2,3,5-tetrahydro-benzo[e][1,4]diazepin-4-yl}-1,1,1-trifluoro-propan-2-ol], the IC50 in experiment [1] (setting [3]) is greater than 10000 nM; in experiment [2] (setting [4]), less than 100 nM.
On the same counts, the results for `CN1CCNCc2cc(OCC(F)(F)F)c(Nc3ncc(Cl)c(N[C@@H]4CCCC[C@H]4NS(C)(=O)=O)n3)cc21` [Example 497, N-((1R,2R)-2-{5-Chloro-2-[1-methyl-7-(2,2,2-trifluoro-ethoxy)-2,3,4,5-tetrahydro-1H-benzo[e][1,4]diazepin-8-ylamino]-pyrimidin-4-ylamino}-cyclohexyl)-methanesulfonamide] are 1000 to 10000 nM and 100 to 1000 nM.
For the compound `CN1CCN(C[C@@H](O)C(F)(F)F)Cc2cc(OCC(F)(F)F)c(Nc3ncc(Cl)c(N[C@@H]4CCCC[C@H]4NS(C)(=O)=O)n3)cc21` [Example 498, N-((1R,2R)-2-{5-Chloro-2-[1-methyl-7-(2,2,2-trifluoro-ethoxy)-4-((R)-3,3,3-trifluoro-2-hydroxy-propyl)-2,3,4,5-tetrahydro-1H-benzo[e][1,4]diazepin-8-ylamino]-pyrimidin-4-ylamino}-cyclohexyl)-methanesulfonamide], the figures for the IC50 in experiment [1] (setting [5]) and in experiment [2] (setting [6]) were greater than 10000 nM and 100 to 1000 nM, respectively.
On the same counts, the results for `CC(C)N1CCNC(=O)c2ccc(Nc3ncc(Cl)c(N[C@@H]4CCCC[C@H]4NS(C)(=O)=O)n3)cc21` [Example 499, N-{(1R,2R)-2-[5-Chloro-2-(1-isopropyl-5-oxo-2,3,4,5-tetrahydro-1H-benzo[e][1,4]diazepin-8-ylamino)-pyrimidin-4-ylamino]-cyclohexyl}-methanesulfonamide] are 100 to 1000 nM and 100 to 1000 nM.
On the same counts, the results for `CNC(=O)c1ccccc1Nc1nc(Nc2ccc3c(c2)OCCCO3)ncc1Cl` [Example 511] are less than 100 nM and less than 100 nM.
With `CNC(=O)c1ccccc1Nc1nc(Nc2ccc3c(c2)OCCNC3=O)ncc1Cl` [Example 512, 2-[5-Chloro-2-(5-oxo-2,3,4,5-tetrahydro-benzo[f][1,4]oxazepin-8-ylamino)-pyrimidin-4-ylamino]-N-methyl-benzamide], the IC50 in experiment [1] (setting [5]) and in experiment [2] (setting [6]) was less than 100 nM in each case.
Turning to `CNC(=O)c1ccccc1Nc1nc(Nc2ccc3c(c2)NC(=O)CCC3)ncc1Cl` [Example 513, 2-[5-Chloro-2-(2-oxo-2,3,4,5-tetrahydro-1H-benzo[b]azepin-8-ylamino)-pyrimidin-4-ylamino]-N-methyl benzamide], the IC50 in experiment [1] (setting [5]) and in experiment [2] (setting [6]) was less than 100 nM throughout.
With `CNC(=O)c1ccccc1Nc1nc(Nc2ccc3c(c2)OCCN(C)C3=O)ncc1Cl` [Example 514, 2-[5-chloro-2-(4-methyl-5-oxo-2,3,4,5-tetrahydro-benzo[f][1,4]oxazepin-8-ylamino)-pyrimidin-4-ylamino]-N-methyl-benzamide], the IC50 in experiment [1] (setting [5]) and in experiment [2] (setting [6]) was less than 100 nM in each case.
With `CCN1CCOc2cc(Nc3ncc(Cl)c(Nc4ccccc4C(=O)NC)n3)ccc2C1=O` [Example 515, 2-[5-Chloro-2-(4-ethyl-5-oxo-2,3,4,5-tetrahydro-benzo[f][1,4]oxazepin-8-ylamino)-pyrimidin-4-ylamino]-N-methyl-benzamide], the IC50 in experiment [1] (setting [5]) and in experiment [2] (setting [6]) was less than 100 nM each time.
Take `CNC(=O)c1ccccc1Nc1nc(Nc2ccc3c(c2)CNCCS3)ncc1Cl` [Example 516, 2-[5-Chloro-2-(6,7,8,9-tetrahydro-5-thia-aza-benzocyclohepten-2-ylamino)-pyrimidin-4-ylamino]-N-methyl-benzamide]: the IC50 in experiment [1] (setting [5]) and in experiment [2] (setting [6]) was less than 100 nM throughout.
Take `CCN1CCSc2ccc(Nc3ncc(Cl)c(Nc4ccccc4C(=O)NC)n3)cc2C1` [Example 517, 2-[5-Chloro-2-(8-ethyl-6,7,8,9-tetrahydro-5-thia-aza-benzocyclohepten-2-ylamino)-pyrimidin-4-ylamino]-N-methyl-benzamide]: the IC50 in experiment [1] (setting [5]) and in experiment [2] (setting [6]) was less than 100 nM in each case.
Regarding `CS(=O)(=O)Nc1ccccc1Nc1nc(Nc2ccc3c(c2)CNCCS3)ncc1Cl` [Example 518], the results for the IC50 in experiment [1] (setting [5]) and in experiment [2] (setting [6]) were 1000 to 10000 nM and less than 100 nM, respectively.
`CS(=O)(=O)N[C@@H]1CCCC[C@H]1Nc1nc(Nc2ccc3c(c2)CNCCS3)ncc1Cl` [Example 519, N-{(1R,2R)-2-[5-Chloro-2-(6,7,8,9-tetrahydro-5-thia-8-aza-benzocyclohepten-2-ylamino)-pyrimidin-4-ylamino]-cyclohexyl}-methanesulfonamide]: the IC50 in experiment [1] (setting [5]) is 1000 to 10000 nM; in experiment [2] (setting [6]), less than 100 nM.
On the same counts, the results for `CS(=O)(=O)N[C@@H]1CCCC[C@H]1Nc1nc(Nc2ccc3c(c2)CNCCS3(=O)=O)ncc1Cl` [Example 520, N-{(1R,2R)-2-[5-Chloro-2-(5,5-dioxo-6,7,8,9-tetrahydro-5H-5lambda*6*-thia-8-aza-benzoylcyclohepten-2-ylamino)-pyrimidin-4-ylamino]-cyclohexyl}-methanesulfonamide] are 1000 to 10000 nM and 100 to 1000 nM.
In the case of `COCCN1CCSc2ccc(Nc3ncc(Cl)c(N[C@@H]4CCCC[C@H]4NS(C)(=O)=O)n3)cc2C1` [Example 521, N-((1R,2R)-2-{5-Chloro-2-[8-(2-methoxy-ethyl)-6,7,8,9-tetrahydro-5-thia-8-aza-benzocyclohepten-2-ylamino]pyrimidin-4-ylamino}-cyclohexyl)-methanesulfonamide], the values for the IC50 in experiment [1] (setting [5]) and in experiment [2] (setting [6]) were 1000 to 10000 nM and less than 100 nM, respectively.
Taken in the same sequence, the figures for `CNC(=O)c1ccccc1Nc1nc(Nc2ccc3c(c2)CN(CCOC)CCS3)ncc1Cl` [Example 522, 2-{5-Chloro-2-[8-(2-methoxy-ethyl)-6,7,8,9-tetrahydro-5-thia-8-aza-benzocyclohepten-2-ylamino]-pyrimidin-4-ylamino}-N-methyl-benzamide] were 100 to 1000 nM and less than 100 nM.
